{"source": "patent US20250090695A1", "about": "“IMMUNOSTIMULANT-CYTOTOXIC CONJUGATE COMPOSITION AND METHODS FOR CANCER TREATMENT” (The Research Foundation for the State University of New York, priority 2022, published 2025)", "key": {"RM1-PGLS tumors": {"system": "RM1-PGLS tumors", "assay_type": "in vivo, murine subjects", "settings": "overall survival post treatment; RM1-PGLS tumors; P < 0.0007 printed for 177Lu-RIMS-1", "description": "FIG. 11A-11C show a visual schematic of RM1-PGLS tumor insertion in mice followed by T-cell population analysis (FIG. 11A), and tumor efficacy study analysis for in vivo tumor treatment with experimental ^177Lu-RIMS-1 compound compared with control compounds: ^177Lu-PSMA-617, unlabeled Lu-RIMS, and saline (FIG. 11B) measuring tumor volume (left), and percent survival (right).\nMurine subjects were treated with RIMS compounds and tumor volume (FIG. 11B, left), subject viability measured as percent survival (FIG. 11B, right), subject weight (FIG. 11C), were described and analyzed as shown in FIGS. 11A-11C. Median overall survivability (OS) in murine subjects treated with RIMS compounds and control therapies."}, "[1]": {"assay": "Biodistribution in a xenograft model of prostate cancer with PC-3 PiP (PSMA(+)) and PC-3 flu (PSMA(−)) tumors", "assay_type": "in vivo, Male NCr nude mice", "settings": "PC-3 PiP/PC-3 flu xenograft, NCr nude mice", "description": "Biodistribution analyses of ^177Lu-RIMS-1 and ^177Lu-PSMA-617 were carried out in a xenograft model of prostate cancer with a PC-3 PiP tumor (PSMA(+)) on the left shoulder of a murine subject, and a PC-3 flu tumor (PSMA(−)) on the right should of a murine subject. Murine subjects examined were Male NCr nude mice."}, "[2]": {"system": "CD8+ and CD4+ T-cell populations", "assay": "T-cell population analysis in spleen and tumor of RM1-PGLS bearing mice", "assay_type": "in vivo", "set-up": "unit not given here", "settings": "RM1-PGLS bearing C57BL/6J mice", "description": "FIG. 12A-12B show graphical representations of T-cell population analysis measuring cell viability in the spleen (FIG. 12A). and in the tumor (FIG. 12B) in vivo for subjects having RM1-PGLS tumors with either an experimental ^177Lu-RIMS compound, or a control compound selected from: ^177Lu-PSMA-617, unlabeled Lu-RIMS, or a control vehicle.\n^177Lu-RIMS-1 and control compounds were evaluated for immune cell recruitment."}, "T-cells (CD3)": {"system": "T-cells (CD3)", "assay": "Immuno-PET ROI analysis of 89Zr-DFO-anti-CD3 after therapy (tumor infiltrating T-cells)", "assay_type": "in vivo, murine subjects", "description": "FIG. 13A-13C describes a method and results for T-cell detection using immuno-positron emission tomography (PET).\nFIG. 14A-14D show graphical representations of tumor infiltrating T-cell analysis after administration of a therapeutic compound or control. Infiltration was measured using immuno-positron emission tomography (PET)."}, "[3]": {"assay": "OLINDA dosimetry to adult male from mouse biodistribution", "settings": "Target Organ Adrenals"}}, "data": [{"smiles": "O=C([O-])CN1CCN(CC(=O)[O-])CCN(CC(=O)NCC2CCC(C(=O)N[C@@H](Cc3ccc4ccccc4c3)C(=O)NCCCC[C@H](NC(=O)N[C@@H](CCC(=O)O)C(=O)O)C(=O)O)CC2)CCN(CC(=O)[O-])CC1.[177Lu+3]", "note": "(stereo partly drawn) [^177Lu-PSMA-617]", "values": [{"measurement": "Median OS", "setting": "RM1-PGLS tumors", "result": 15, "unit": "days"}, {"measurement": "Biodistribution Blood (% ID/g ± SD)", "setting": "[1]; 2 h", "result": "0.95 ± 0.53", "unit": "% ID/g"}, {"measurement": "Biodistribution Bone (% ID/g ± SD)", "setting": "[1]; 2 h", "result": "0.21 ± 0.11", "unit": "% ID/g"}, {"measurement": "Biodistribution Heart (% ID/g ± SD)", "setting": "[1]; 2 h", "result": "0.27 ± 0.12", "unit": "% ID/g"}, {"measurement": "Biodistribution Kidney (% ID/g ± SD)", "setting": "[1]; 2 h", "result": "5.12 ± 1.95", "unit": "% ID/g"}, {"measurement": "Biodistribution Liver (% ID/g ± SD)", "setting": "[1]; 2 h", "result": "0.29 ± 0.14", "unit": "% ID/g"}, {"measurement": "Biodistribution Muscle (% ID/g ± SD)", "setting": "[1]; 2 h", "result": "0.14 ± 0.05", "unit": "% ID/g"}, {"measurement": "Biodistribution PSMA (+) (PC3-PIP) tumor (% ID/g ± SD)", "setting": "[1]; 2 h", "result": "11.78 ± 1.46", "unit": "% ID/g"}, {"measurement": "Biodistribution PSMA (−) (PC3-Flu) tumor (% ID/g ± SD)", "setting": "[1]; 2 h", "result": "0.48 ± 0.2", "unit": "% ID/g"}, {"measurement": "Biodistribution Sm Int (% ID/g ± SD)", "setting": "[1]; 2 h", "result": "0.28 ± 0.15", "unit": "% ID/g"}, {"measurement": "Biodistribution Spleen (% ID/g ± SD)", "setting": "[1]; 2 h", "result": ".027 ± 0.14 % ID/g"}, {"measurement": "Biodistribution Blood (% ID/g ± SD)", "setting": "[1]; 24 h", "result": "0.21 ± 0.13", "unit": "% ID/g"}, {"measurement": "Biodistribution Bone (% ID/g ± SD)", "setting": "[1]; 24 h", "result": "0.07 ± 0.010", "unit": "% ID/g"}, {"measurement": "Biodistribution Heart (% ID/g ± SD)", "setting": "[1]; 24 h", "result": "0.09 ± 0.05", "unit": "% ID/g"}, {"measurement": "Biodistribution Kidney (% ID/g ± SD)", "setting": "[1]; 24 h", "result": "0.57 ± 0.29", "unit": "% ID/g"}, {"measurement": "Biodistribution Liver (% ID/g ± SD)", "setting": "[1]; 24 h", "result": "0.08 ± 0.040", "unit": "% ID/g"}, {"measurement": "Biodistribution Muscle (% ID/g ± SD)", "setting": "[1]; 24 h", "result": "0.04 ± 0.010", "unit": "% ID/g"}, {"measurement": "Biodistribution PSMA (+) (PC3-PIP) tumor (% ID/g ± SD)", "setting": "[1]; 24 h", "result": "8.24 ± 3.22", "unit": "% ID/g"}, {"measurement": "Biodistribution PSMA (−) (PC3-Flu) tumor (% ID/g ± SD)", "setting": "[1]; 24 h", "result": "0.18 ± 0.13", "unit": "% ID/g"}, {"measurement": "Biodistribution Sm Int (% ID/g ± SD)", "setting": "[1]; 24 h", "result": "0.06 ± 0.020", "unit": "% ID/g"}, {"measurement": "Biodistribution Spleen (% ID/g ± SD)", "setting": "[1]; 24 h", "result": "0.08 ± 0.040", "unit": "% ID/g"}, {"measurement": "Biodistribution Blood (% ID/g ± SD)", "setting": "[1]; 72 h", "result": "0.03 ± 0.01", "unit": "% ID/g"}, {"measurement": "Biodistribution Bone (% ID/g ± SD)", "setting": "[1]; 72 h", "result": "0.05 ± 0.01", "unit": "% ID/g"}, {"measurement": "Biodistribution Heart (% ID/g ± SD)", "setting": "[1]; 72 h", "result": "0.03 ± 0.01", "unit": "% ID/g"}, {"measurement": "Biodistribution Kidney (% ID/g ± SD)", "setting": "[1]; 72 h", "result": "0.08 ± 0.05", "unit": "% ID/g"}, {"measurement": "Biodistribution Liver (% ID/g ± SD)", "setting": "[1]; 72 h", "result": "0.03 ± 0.01", "unit": "% ID/g"}, {"measurement": "Biodistribution Muscle (% ID/g ± SD)", "setting": "[1]; 72 h", "result": "0.02 ± 0.01", "unit": "% ID/g"}, {"measurement": "Biodistribution PSMA (+) (PC3-PIP) tumor (% ID/g ± SD)", "setting": "[1]; 72 h", "result": "3.65 ± 0.59", "unit": "% ID/g"}, {"measurement": "Biodistribution PSMA (−) (PC3-Flu) tumor (% ID/g ± SD)", "setting": "[1]; 72 h", "result": "0.02 ± 0.01", "unit": "% ID/g"}, {"measurement": "Biodistribution Sm Int (% ID/g ± SD)", "setting": "[1]; 72 h", "result": "0.03 ± 0.01", "unit": "% ID/g"}, {"measurement": "Biodistribution Spleen (% ID/g ± SD)", "setting": "[1]; 72 h", "result": "0.04 ± 0.01", "unit": "% ID/g"}, {"measurement": "Total CD4+ T-cell population", "setting": "[2]; Spleen", "result": "12.73 ± 2.17"}, {"measurement": "Total CD8+ T-cell population", "setting": "[2]; Spleen", "result": "8.78 ± 1.61"}, {"measurement": "Total CD4+ T-cell population", "setting": "[2]; Tumor", "result": "1.47 ± 0.59"}, {"measurement": "Total CD8+ T-cell population", "setting": "[2]; Tumor", "result": "4.76 ± 1.40"}, {"measurement": "% Injected Dose/cc of 89Zr-DFO-anti-CD3 (ROI)", "setting": "T-cells (CD3); Blood, 8 days after administration of therapy", "result": "8.94 ± 0.34", "unit": "% Injected Dose/cc"}, {"measurement": "% Injected Dose/cc of 89Zr-DFO-anti-CD3 (ROI)", "setting": "T-cells (CD3); Blood, 9 days after administration of therapy", "result": "5.85 ± 2.22", "unit": "% Injected Dose/cc"}, {"measurement": "% Injected Dose/cc of 89Zr-DFO-anti-CD3 (ROI)", "setting": "T-cells (CD3); Blood, 10 days after administration of therapy", "result": "4.13 ± 0.68", "unit": "% Injected Dose/cc"}, {"measurement": "% Injected Dose/cc of 89Zr-DFO-anti-CD3 (ROI)", "setting": "T-cells (CD3); Blood, 11 days after administration of therapy", "result": "4.05 ± 1.24", "unit": "% Injected Dose/cc"}, {"measurement": "% Injected Dose/cc of 89Zr-DFO-anti-CD3 (ROI)", "setting": "T-cells (CD3); Blood, 12 days after administration of therapy", "result": "4.26 ± 0.62", "unit": "% Injected Dose/cc"}, {"measurement": "% Injected Dose/cc of 89Zr-DFO-anti-CD3 (ROI)", "setting": "T-cells (CD3); Spleen, 8 days after administration of therapy", "result": "21.55 ± 4.49", "unit": "% Injected Dose/cc"}, {"measurement": "% Injected Dose/cc of 89Zr-DFO-anti-CD3 (ROI)", "setting": "T-cells (CD3); Spleen, 9 days after administration of therapy", "result": "24.84 ± 4.91", "unit": "% Injected Dose/cc"}, {"measurement": "% Injected Dose/cc of 89Zr-DFO-anti-CD3 (ROI)", "setting": "T-cells (CD3); Spleen, 10 days after administration of therapy", "result": "27.09 ± 3.75", "unit": "% Injected Dose/cc"}, {"measurement": "% Injected Dose/cc of 89Zr-DFO-anti-CD3 (ROI)", "setting": "T-cells (CD3); Spleen, 11 days after administration of therapy", "result": "23.82 ± 3.55", "unit": "% Injected Dose/cc"}, {"measurement": "% Injected Dose/cc of 89Zr-DFO-anti-CD3 (ROI)", "setting": "T-cells (CD3); Spleen, 12 days after administration of therapy", "result": "24.65 ± 0.81", "unit": "% Injected Dose/cc"}, {"measurement": "% Injected Dose/cc of 89Zr-DFO-anti-CD3 (ROI)", "setting": "T-cells (CD3); Tumor, 8 days after administration of therapy", "result": "10.27 ± 0.024", "unit": "% Injected Dose/cc"}, {"measurement": "% Injected Dose/cc of 89Zr-DFO-anti-CD3 (ROI)", "setting": "T-cells (CD3); Tumor, 9 days after administration of therapy", "result": "7.83 ± 1.66", "unit": "% Injected Dose/cc"}, {"measurement": "% Injected Dose/cc of 89Zr-DFO-anti-CD3 (ROI)", "setting": "T-cells (CD3); Tumor, 10 days after administration of therapy", "result": "6.67 ± 3.63", "unit": "% Injected Dose/cc"}, {"measurement": "% Injected Dose/cc of 89Zr-DFO-anti-CD3 (ROI)", "setting": "T-cells (CD3); Tumor, 11 days after administration of therapy", "result": "3.90 ± 0.35", "unit": "% Injected Dose/cc"}, {"measurement": "% Injected Dose/cc of 89Zr-DFO-anti-CD3 (ROI)", "setting": "T-cells (CD3); Tumor, 12 days after administration of therapy", "result": "2.72 ± 0.81", "unit": "% Injected Dose/cc"}, {"measurement": "OLINDA dosimetry to Adult Male, Adrenals", "setting": "[3]", "result": 1.32, "unit": "μSv/MBq"}]}]}
